{"source": "patent US8309534B2", "about": "“Compositions comprising a GPR109 ligand for treating disorders of the digestive tract and/or cancer” (Medical College of Georgia Research Institute, Inc., priority 2007, dated 2012)", "key": {"[1]": {"test_system": "bone marrow-derived dendritic cells", "assay": "Development of bone marrow-derived dendritic cells (FACS)", "type": "cell-based", "conditions": "mouse bone marrow cells, ligand 1 mM, 4 days", "method": "In these experiments, mouse bone marrow cells were collected and cultured in the presence of various ligands (1 mM) for 4 days. Following this, FACS (fluorescence activated cell sorting) was used to identify the fraction of various immune cell types in the sample."}, "[2]": {"test_system": "LPS-induced activation of NF-κB promoter in vector-transfected KM12L4 cells", "assay": "LPS-induced NF-κB promoter reporter in vector-transfected KM12L4 cells (no GPR109A)", "type": "cell-based, human", "conditions": "ligand 1 mM 8 h, LPS 100 ng/ml 4 h", "source_text": "(§1) The anti-inflammatory effect of butyrate was monitored in colonic cells by its ability to suppress LPS-induced activation of NF-κB promoter with luciferase as the reporter. The participation of SLC5A8 and GPR109A in mediating the effects of extracellular butyrate was differentiated first by using specific ligands. If SLC5A8 is involved in the process, the transporter-facilitated entry of butyrate followed by inhibition of histone deacetylases (HDACs) inside the cells would be responsible for the effects. If GPR109A is involved in the process, the activation of the receptor by extracellular butyrate would be responsible for the effects. […] In these experiments, cells were first transfected with the construct carrying the NF-κB-luciferase, pretreated with GPR109A ligands (1 mM) for 8 h and then exposed to LPS (100 ng/ml) for 4 h. Following the treatment, cell lysates were used to measure luciferase activity as a read-out for activation of NF-κB.\n(§2) The cells were transfected with either empty vector or human GPR109A cDNA. […] We cloned the human GPR109A cDNA by RT-PCR using mRNA prepared from human colon, and subcloned the RT-PCR product into pcDNA vector under the control of the cytomegalovirus promoter. The insert was sequenced to confirm its molecular identity. […] The activation of the receptor was monitored by measuring the activity of a K^+-channel."}, "[3]": {"test_system": "LPS-induced NF-κB promoter activity in KM12L4 cells with ectopic expression of GPR109A", "assay": "LPS-induced NF-κB promoter reporter in KM12L4 cells transfected with human GPR109A cDNA", "type": "cell-based", "conditions": "ligand 1 mM 8 h, LPS 100 ng/ml 4 h", "source_text": "as §1, §2"}, "[4]": {"test_system": "LPS-induced activation of NF-κB promoter in CCD841 cells", "conditions": "ligand 1 mM 8 h, then LPS 100 ng/ml 4 h, luciferase", "source_text": "as §1"}, "[5]": {"test_system": "vector-transfected KM12L4 cells", "conditions": "0.5 mM, 24 h"}, "[6]": {"test_system": "Colon cancer cell line SW480", "assay": "Apoptosis of colon cancer cells with octanoate (propidium iodide FACS)", "type": "cell-based", "conditions": "human colon cancer cell line (SW480); varying concentrations, 24 or 48 h", "method": "Colon cancer cell line SW480 was cultured in the presence of varying concentrations of octanoate for 24 or 48 h, and then cells were fixed in ethanol, stained with propidium iodide, and subjected to FACS analysis to determine the percent of cells undergoing apoptosis. Sub G0/1 cells were quantitated using Cell Quest program and values are expressed as mean+SEM."}, "[7]": {"test_system": "human breast cancer cell line", "assay": "Apoptosis of human breast cancer cell line with octanoate", "type": "cell-based", "conditions": "human breast cancer cell line expressing GPR109B", "source_text": "The GPR109B receptor isoform is unique to humans. Its expression is not reduced in cancer. Its ligand specificity is different from that of GPR109A. One of the ligands which has relatively high affinity for GPR109B is the medium-chain fatty acid octanoate. This ligand was used to see if this receptor isoform can be used to kill tumor cells. […] Two cancer cell lines, a human colon cancer cell line and a human breast cancer cell line were studied. Both these cell lines express GPR109B because the expression of this receptor isoform is not affected in cancer. […] Thus, another embodiment provides a method for treating cancer by administering to a subject an effective amount of a ligand for GPR109B to promote apoptosis in tumor cells optionally in combination with a second therapeutic agent. A preferred ligand is octanoate or a derivative thereof."}, "[8]": {"test_system": "LPS-induced NF-κB promoter activity in HCT116 cells", "conditions": "HCT116, no expression of GPR109A", "source_text": "as §1\n(§3) Additionally, two different isogenic cell lines of the human colon cancer cell line HCT116, one with normal expression of the DNA methyltransferase I(DNMT1) and the other with deletion of the gene coding for the enzyme (HCT116-DNMT1^−/−) were used."}, "[9]": {"test_system": "LPS-induced NF-κB promoter activity in HCT116-DNMT1−/− cells", "conditions": "GPR109A expressed", "source_text": "as §1, §3"}, "[10]": {"test_system": "GPR109A expression in human colon cancer cell lines", "assay": "GPR109A mRNA expression in colon cancer cell lines by semi-quantitative RT-PCR", "type": "cell-based", "conditions": "2 μg/ml, 72 h", "method": "HPRT1 mRNA was used as an internal control. […] Steady-state levels of mRNAs for DNMT1, DNMT3a, DNMT3b, and HPRT1 were monitored in normal human colon tissues and in human colon cancer tissues by semi-quantitative RT-PCR. […] Three different colon cancer cell lines were treated with procainamide, a specific inhibitor of DNMT1, and the expression of GPR109A was monitored in cells treated with or without the inhibitor."}}, "note": "“Also recorded” adds a separate entry of the source."}
{"smiles": "CCC(=O)O", "note": "[propionate]", "values": [{"measurement": "effect on development of dendritic cells", "setting": "[1]", "value": "able to block the development"}]}
{"smiles": "CC(C)n1nnc2cc(C(=O)O)ccc21", "note": "[IPBT, 1-isopropyl-benzotriazole-5-carboxylic acid]", "values": [{"measurement": "effect on LPS-induced activation of NF-κB promoter", "setting": "[2]", "value": "did not have any effect"}, {"measurement": "effect on LPS-induced NF-κB promoter activity", "setting": "[3]", "value": "did not have any effect"}]}
{"smiles": "O=C(O)c1cccnc1", "note": "[nicotinate, nicotinic acid]", "values": [{"measurement": "effect on LPS-induced activation of NF-κB promoter", "setting": "[4]", "value": "able to block LPS-induced activation of NF-κB promoter"}, {"measurement": "effect on development of dendritic cells", "setting": "[1]", "value": "had no effect"}, {"measurement": "change in expression of genes involved in apoptosis and cell cycle", "setting": "[5]", "value": "do not exhibit any change in the expression of various genes"}]}
{"smiles": "CC(=O)O", "note": "[acetate]", "values": [{"measurement": "effect on development of dendritic cells", "setting": "[1]", "value": "had no effect"}]}
{"smiles": "CCCCCCCC(=O)O", "note": "[octanoate]", "values": [{"measurement": "apoptosis", "setting": "[6]", "value": "induced apoptosis; also recorded: leads to apoptosis in a dose-dependent manner"}, {"measurement": "apoptosis", "setting": "[7]", "value": "leads to apoptosis in a dose-dependent manner"}]}
{"smiles": "CC1(c2ccccc2)OC(C(=O)O)=CC1=O", "note": "(stereo not drawn) [acifran]", "values": [{"measurement": "effect on LPS-induced activation of NF-κB promoter", "setting": "[2]", "value": "did not have any effect"}, {"measurement": "effect on LPS-induced NF-κB promoter activity", "setting": "[3]", "value": "marked suppression"}, {"measurement": "effect on LPS-induced NF-κB promoter activity", "setting": "[8]", "value": "none of these compounds had any significant effect"}, {"measurement": "effect on LPS-induced NF-κB promoter activity", "setting": "[9]", "value": "suppressed LPS-induced promoter activity"}]}
{"smiles": "Nc1ncn([C@@H]2O[C@H](CO)[C@@H](O)[C@H]2O)c(=O)n1", "note": "[5-azacytidine]", "values": [{"measurement": "effect on GPR109A expression", "setting": "[10]", "value": "the expression of the gene is induced"}, {"measurement": "effect on GPR109A expression", "setting": "[10]; listed as 5′-azacytidine", "value": "re-activates the expression of the receptor"}]}
